Literature values in patent US20110160244A1, “PHENYL[…] MU-OPIOID RECEPTOR” (AUSPEX PHARMACEUTICALS, INC., priority 2008, published 2011).

Columns and labels:
[1] = after oral administration

CCOC(=O)C1(c2ccccc2)CCN(C)CC1 [Meperidine, Ethyl 1-methyl-4-phenylpiperidine-4-carboxylate]
time to peak analgesic effect (following oral administration): ≤ 2 h | time until analgesic effects are detectable (following oral administration): ≤ 15 min | time for which the drug is effective (statement on dosing interval): 2 h | fraction escaping first-pass metabolism [1]: about 50%
